Assay results: paper PMC6661730, “Biochemical characterization of a novel exo-oligoxylanase from Paenibacillus barengoltzii suitable for monosaccharification from corncobs” (Biotechnology for Biofuels, 2019)

Molecular target: T1, PbRex8 (Paenibacillus barengoltzii, UniProt R9L536)
T1 construct: gene C812_03928; full-length ORF, 382 residues (predicted 44 kDa), no signal peptide; N-terminal His6-tag from pET-28a(+) (NheI/XhoI), tag cleavage not mentioned; E. coli BL21(DE3); monomer; primers encode N-terminal MKEHQG and C-terminal RGEA
Test: HPLC-RID xylose release, nonlinear regression
Assay type: biochemical
Conditions: competitive; X3 as substrate, 5 mM citrate pH 5.5, 55 °C

T1 sequence (R9L536 entry or part of it): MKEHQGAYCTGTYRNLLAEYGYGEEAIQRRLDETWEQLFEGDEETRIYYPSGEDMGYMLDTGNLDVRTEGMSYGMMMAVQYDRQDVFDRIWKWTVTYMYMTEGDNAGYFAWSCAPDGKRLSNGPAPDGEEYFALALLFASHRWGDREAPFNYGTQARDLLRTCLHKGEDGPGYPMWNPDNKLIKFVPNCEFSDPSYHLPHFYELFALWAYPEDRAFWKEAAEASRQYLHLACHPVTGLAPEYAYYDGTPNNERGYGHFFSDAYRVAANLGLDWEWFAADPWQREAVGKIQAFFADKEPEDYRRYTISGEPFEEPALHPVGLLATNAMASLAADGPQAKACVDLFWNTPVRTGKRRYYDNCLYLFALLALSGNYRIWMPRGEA

Ki: 12.9 ± 0.6 mM
SMILES: OC1OC[C@@H](O)[C@H](O)[C@H]1O (stereo partly shown) [X, xylose]
